The assay concerns the target T1, G1 APOL1 (Homo sapiens, UniProt O14791, I384M/S342G).
T1 construct: expressed in transfected cells
T1 sequence (O14791 28-398 S342G/I384M): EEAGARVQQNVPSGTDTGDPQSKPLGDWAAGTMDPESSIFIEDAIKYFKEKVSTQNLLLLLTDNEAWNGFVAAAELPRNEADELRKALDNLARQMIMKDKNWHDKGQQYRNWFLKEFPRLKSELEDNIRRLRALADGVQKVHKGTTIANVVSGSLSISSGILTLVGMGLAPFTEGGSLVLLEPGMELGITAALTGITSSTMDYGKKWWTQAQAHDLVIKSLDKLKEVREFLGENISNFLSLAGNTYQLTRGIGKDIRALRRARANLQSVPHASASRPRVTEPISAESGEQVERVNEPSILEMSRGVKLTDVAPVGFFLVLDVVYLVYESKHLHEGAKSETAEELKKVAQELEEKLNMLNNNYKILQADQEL
Nature of the assay: Acute APOL1 Thallium Assay with inducible stable clones of HEK 293 cells. To be noted: HEK 293 T-Rex inducible stable clone expressing G1 APOL1. The class given is cell-based. The source says: Acute APOL1 Thallium Assay with Inducible Stable Clones of HEK 293 Cells
Apolipoprotein L1 (APOL1) proteins form potassium-permeable cation pores in the plasma membrane. APOL1 risk variants (G1 and G2) induce greater potassium flux than G0 in HEK293 cells. This assay exploits the permeability of thallium (T1+) through ligand-gated potassium channels. The dye produces a bright fluorescent signal upon binding to T1+ conducted through potassium channels. The intensity of the T1+ signal is proportional to the number of potassium channels in the open state. Therefore, it provides a functional indication of the potassium channel activities. During the initial dye-loading step, the T1+ indicator dye as an acetoxymethyl (AM) ester enters the cells through passive diffusion. Cytoplasm esterases cleave the AM ester and relieve its active thallium-sensitive form. The cells are then stimulated with T1+. The increase of fluorescence in the assay represents the influx of T1+ into the cell specifically through the potassium channel (i.e. through APOL1 pores), providing a functional measurement of potassium channel/pore activity. The Thallium assay is conducted with cells expressing G1 APOL1.
APOL1 Cell Line (HEK T-Rex Stable Inducible Cell Line)
• HEK T-Rex System • Tetracycline (Tet) inducible mammalian expression system. • Stably express the Tet repressor to regulate transcription. • Expression under the full-length CMV promoter. • APOL1 stable inducible cell line Clone used: G1 DC3.25 Tissue Culture Media Cell Culture Medium • DMEM+10% FBS+P/S+5 μg/mL blasticidin+1 μg/mL puromycin. • 500 mL DMEM+55 mL FBS+5 mL P/S+280 μL blasticidin S HCl (10 mg/mL)+56 μL puromycin (10 mg/mL). Cell Assay Medium • DMEM with 2% FBS+penicillin streptomycin. Reagents:
Instruments and Equipment • Nuaire cell culture hood, Cat. No. 540-600 • 37° C./5% CO2 incubator link to robotic arm, Liconic: STX110 • Molecular Devices FLIPR^Tetra High throughput cellular screening system, Cat. No. FT0324, Molecular Devices • ThermoFisher MultiDrop 384, Cat. No. 5840300 • Biotek Microfill, Cat. No. ASF1000A-4145 • BioRad TC10 cell counter, Cat. No. 145-0010 Assay Procedures Cells Scaled Up from Frozen Vials • APOL1 G1 3.25 (HEK293 T-Rex) frozen vials: 5 million cells per vial • Step 1, Day 1: Defrost frozen vial into T-225. • Step 2, Day 5: (when 85% confluent): Split one T-225 at 3×10^6 cells per flask. • Step 3, Day 8: Splits cells to set up for the assay plates as described below. Cell Culture
T-Rex APOL1 HEK cells are split twice per week to keep the confluence state below 85% of the culture flask surface area. Cells can be kept until passage 25.
• DMEM high glucose+10% FBS, +P/S, +5 μg/mL blasticidin, +1 μg/mL puromycin. • 500 mL DMEM, +55 mL FBS, +5 mL P/S, +280 μL blasticidin 10 mg/mL, +56 μL Puromycin 10 mg/mL. Assay Media • Opti-MEM reduced serum medium from Invitrogen. Day 1 Preparation of Cell Assay Plates • Culture medium is removed from the x cm^2 T-flask by aspiration. • The cell monolayer is rinsed with PBS 1× at room temperature. PBS is removed by aspiration. • Cells are trypsinized using Trypsin. • The flasks are incubated at room temperature for 2-3 minutes. • Complete DMEM medium is then added. Cell suspension is then transferred to a 50 mL Falcon polypropylene tube. • Cells are then counted using a BioRad TC10 cell counter and the required amount of cells are centrifuged at 1200 RPM for 5 minutes. Required amount is 1.3×10^6 cells/mL APOL1 T-Rex HEK cells. • The pellet is suspended in the assay medium. • Using the MultiDrop, add 20 μL to each well (corresponds to 26000 cells total per well) of a 384-well black, transparent, flat bottom Poly-D coated plate. • Tetracycline as prepared in the following section is added to the cells before plating to induce APOL1 expression. • Plates are left at room temperature for 20 to 30 minutes before incubation at 37° C. and 5% CO2. […]

Setting [1] is: read-out: Thallium Assay (IC50).

Each structure is given as a SMILES string. Read-outs that look alike come from different tables or passages of the source.

In general, IC50 refers to the point on the concentration scale where inhibition reaches its midpoint. Take `O=C(CC1COC1)NC[C@H]1C[C@@H](c2c(-c3ccc(F)cc3)[nH]c3c(F)cc(F)cc32)C1` [Compound 319]: the IC50 under setting [1] is > 1000 nM.

As for `CCS(=O)(=O)NCC(=O)NC[C@H]1C[C@@H](c2c(-c3ccc(F)cc3)[nH]c3c(F)cc(F)cc32)C1` [Compound 263], the IC50 under setting [1] is > 1000 nM.

For the compound `O=C1NCC[C@@H]1NC1CC(c2c(-c3ccc(F)cc3)[nH]c3c(F)cc(F)cc23)C1` (stereo partly drawn) [Compound 20, (3S)-3-[[3-[5,7-difluoro-2-(4-fluorophenyl)-1H-indol-3-yl]cyclobutyl]amino]pyrrolidin-2-one], the IC50 under setting [1] was < 250 nM.

Regarding `CN1CCC(CC(=O)N[C@H]2C[C@@H](c3c(-c4ccc(F)cc4)[nH]c4c(F)cc(F)cc43)C2)CC1` [Compound 52], under setting [1], the IC50 is > 1000 nM.

In the case of `O=C1NCC(C(=O)NC[C@H]2C[C@H](c3c(-c4ccc(F)cc4)[nH]c4c(F)cc(F)cc43)C2)O1` (some centres unmarked) [Compound 269], the IC50 under setting [1] is > 1000 nM.

In the case of `O=C1CC(C(=O)N[C@H]2C[C@@H](c3c(-c4ccc(F)cc4)[nH]c4c(F)cc(F)cc43)C2)C(=O)N1` (some centres unmarked) [Compound 65], the IC50 under setting [1] is > 1000 nM.

For the compound `O=S(=O)(NCCCn1ccnc1)NC[C@H]1C[C@H](c2c(-c3ccc(F)cc3)[nH]c3c(F)cc(F)cc32)C1` [Compound 366], the IC50 under setting [1] is > 1000 nM.

With `O=C(NC[C@H]1C[C@@H](c2c(-c3ccc(F)cc3)[nH]c3c(F)cc(F)cc32)C1)c1cnn[nH]1` [Compound 309], the IC50 under setting [1] is > 1000 nM.

On to `Fc1ccc(-c2[nH]c3c(F)cc(F)cc3c2C2CC(NCC(F)F)C2)cc1` (centres unmarked) [Compound 26], for which, under setting [1], the IC50 fell in the range of 250 to 1000 nM.

As to `C[C@@H](CO)NCC1CC(c2c(-c3ccc(F)cc3)[nH]c3c(F)cc(F)cc23)C1` (some centres unmarked) [Compound 389], under setting [1], the IC50 was > 1000 nM.

As to `OCC(CO)NCC1CC(c2c(-c3ccc(F)cc3)[nH]c3c(F)cc(F)cc23)C1` (centres unmarked) [Compound 376], the IC50 under setting [1] lay in the range of 250 to 1000 nM.

Turning to `O=C1CC(CC(=O)NC2CC(Cc3c(-c4ccc(F)cc4)[nH]c4c(F)cc(F)cc34)C2)C(=O)N1` (centres unmarked) [Compound 164], under setting [1], the IC50 was > 1000 nM.

Regarding `CS(=O)(=O)CCCC(=O)NC[C@H]1C[C@@H](c2c(-c3ccc(F)cc3)[nH]c3c(F)cc(F)cc32)C1` [Compound 308], the IC50 under setting [1] was > 1000 nM.

As for `N[C@@H](CO)C(=O)NC[C@H]1C[C@H](c2c(-c3ccc(F)cc3)[nH]c3c(F)cc(F)cc32)C1` [Compound 194], under setting [1], the 50% inhibitory concentration (IC50) was < 250 nM.

Consider `CC1(C(=O)N[C@H]2C[C@@H](c3c(-c4ccc(F)cc4)[nH]c4c(F)cc(F)cc43)C2)CCC(=O)NC1` (mixture of isomers) [Compound 66], for which, under setting [1], the half-maximal inhibitory concentration (IC50) was > 1000 nM.

Turning to `Cn1ccc(NCC2CC(c3c(-c4ccc(F)cc4)[nH]c4c(F)cc(F)cc34)C2)n1` (centres unmarked) [Compound 399], under setting [1], the IC50 is > 1000 nM.

As for `O=C(CC1NC(=O)NC1=O)NC1CC(Cc2c(-c3ccc(F)cc3)[nH]c3c(F)cc(F)cc23)C1` (centres unmarked) [Compound 168], under setting [1], the concentration for half-maximal inhibition (IC50) is > 1000 nM.

Regarding `CNCC(=O)N1CC(Cc2c(-c3ccc(F)cc3)[nH]c3c(F)cc(F)cc23)C1` [Compound 440], the IC50 under setting [1] was in the range of 250 to 1000 nM.

In the case of `CC(C)C(O)C(=O)N[C@H]1C[C@H](c2c(-c3ccc(F)cc3)[nH]c3c(F)cc(F)cc32)C1` (some centres unmarked) [Compound 93], the half-inhibitory concentration (IC50) under setting [1] fell in the range of 250 to 1000 nM.

With `CC(CC(=O)NC[C@H]1C[C@@H](c2c(-c3ccc(F)cc3)[nH]c3c(F)cc(F)cc32)C1)N1CCOCC1` (mixture of isomers) [Compound 318], the IC50 under setting [1] was > 1000 nM.

Consider `O=S(=O)(NCCO)NC[C@H]1C[C@H](c2c(-c3ccc(F)cc3)[nH]c3c(F)cc(F)cc32)C1` [Compound 339], for which the 50% inhibitory concentration (IC50) under setting [1] is < 250 nM.

With `CC(C)(C)OC(=O)N[C@@H](C(=O)NC[C@H]1C[C@H](c2c(-c3ccc(F)cc3)[nH]c3c(F)cc(F)cc32)C1)C1CC1` [Compound 277], under setting [1], the IC50 was > 1000 nM.

With `CC(C)(C)OC(=O)N1CC[C@H](O)[C@H]1C(=O)NC[C@H]1C[C@H](c2c(-c3ccc(F)cc3)[nH]c3c(F)cc(F)cc32)C1` [Compound 255], the IC50 under setting [1] is > 1000 nM.

With `Cn1ccnc1S(=O)(=O)N[C@H]1C[C@H](c2c(-c3ccc(F)cc3)[nH]c3c(F)cc(F)cc32)C1` [Compound 148], under setting [1], the IC50 was > 1000 nM.

Turning to `Cc1nccn1CC(=O)N[C@H]1C[C@@H](c2c(-c3ccc(F)cc3)[nH]c3c(F)cc(F)cc32)C1` [Compound 63], the IC50 under setting [1] was > 1000 nM.

Regarding `CO[C@H](C)C(=O)NC[C@H]1C[C@H](c2c(-c3ccc(F)cc3)[nH]c3c(F)cc(F)cc32)C1` [Compound 240], under setting [1], the IC50 is > 1000 nM.

Consider `O=C(CCO)NC1CC(c2c(-c3ccc(F)cc3)[nH]c3c(F)cc(C(F)(F)F)cc23)C1` (mixture of isomers) [Compound 2, N-[3-[7-fluoro-2-(4-fluorophenyl)-5-(trifluoromethyl)-1H-indol-3-yl]cyclobutyl]-3-hydroxy-propanamide], for which the IC50 under setting [1] was 250 to 1000 nM.

With `NC(=O)C1(NS(=O)(=O)NC[C@H]2C[C@H](c3c(-c4ccc(F)cc4)[nH]c4c(F)cc(F)cc43)C2)CC1` [Compound 349], the 50% inhibitory concentration (IC50) under setting [1] was > 1000 nM.

Turning to `O=C(NC[C@H]1C[C@H](c2c(-c3ccc(F)cc3)[nH]c3c(F)cc(F)cc32)C1)[C@@H]1C[C@@H](O)CN1` [Compound 225], the IC50 under setting [1] was 250 to 1000 nM.

Consider `O=S(=O)(N[C@H]1C[C@H](c2c(-c3ccc(F)cc3)[nH]c3c(F)cc(F)cc32)C1)C1CCOCC1` [Compound 156], for which the IC50 under setting [1] is > 1000 nM.

In the case of `CC(C(=O)N[C@H]1C[C@H](c2c(-c3ccc(F)cc3)[nH]c3c(F)cc(F)cc32)C1)N(C)C` (mixture of isomers) [Compound 111], under setting [1], the half-inhibitory concentration (IC50) is > 1000 nM.

On to `O=C(CCN1CCCC1=O)N[C@H]1C[C@H](c2c(-c3ccc(F)cc3)[nH]c3c(F)cc(F)cc32)C1` [Compound 114], for which the IC50 under setting [1] is > 1000 nM.

Regarding `NC1CC(c2c(-c3ccc(OC(F)F)cc3)[nH]c3c(F)cc(F)cc23)C1` (centres unmarked) [Compound 9], the IC50 under setting [1] was < 250 nM.

On to `N[C@H]1C[C@H](c2c(-c3ccc(F)cc3)[nH]c3c(F)cc(F)cc32)C1` [Compound 89, (1r,3r)-3-[5,7-difluoro-2-(4-fluorophenyl)-1H-indol-3-yl]cyclobutanamine], for which, under “Thallium Assay (IC50)”, the IC50 was < 250 nM.

For `CC(=O)NCCNC1CC(c2c(-c3ccc(F)cc3)[nH]c3c(F)cc(F)cc23)C1` (centres unmarked) [Compound 23], the IC50 under setting [1] is > 1000 nM.

As for `O=C(CCN1CCCC1)N[C@H]1C[C@H](c2c(-c3ccc(F)cc3)[nH]c3c(F)cc(F)cc32)C1` [Compound 109], the IC50 under setting [1] was > 1000 nM.

As to `O=S(=O)(NC[C@H]1C[C@H](c2c(-c3ccc(F)cc3)[nH]c3c(F)cc(F)cc32)C1)N[C@H]1C[C@H](O)C1` [Compound 344], the IC50 under setting [1] was > 1000 nM.

Turning to `CC(C)C(O)C(=O)NC[C@H]1C[C@@H](c2c(-c3ccc(F)cc3)[nH]c3c(F)cc(F)cc32)C1` (some centres unmarked) [Compound 301], the IC50 under setting [1] was > 1000 nM.

Values taken from patent publication US12281102B2, “Inhibitors of APOL1 and methods of using same” (Vertex Pharmaceuticals Incorporated, priority 2020, dated 2025).
